Laboratory results taken from ChEMBL document CHEMBL3745645, “Synthesis, in vitro antitumor activity, dihydrofolate reductase inhibition, DNA intercalation and structure-activity relationship studies of 1,3,5-triazine analogues” (Bioorg Med Chem Lett, 2016).
Calls of active or inactive are those of the source. No cut-off for these calls is given here.

How the values were obtained:
Type in all cases: functional
[1] = Cytotoxicity against human BT549 cells at 10 uM after 48 hrs by SRB assay; conditions: BT-549, 48 h, read-out: GI
HT-29 = assay: Cytotoxicity against human HT-29 cells at 10 uM after 48 hrs by SRB assay; conditions: HT-29, 48 h, read-out: GI
MDA-MB-468 = assay: Cytotoxicity against human MDA-MB-468 cells at 10 uM after 48 hrs by SRB assay; conditions: MDA-MB-468, 48 h, read-out: GI
NCI-H226 = assay: Cytotoxicity against human NCI-H226 cells at 10 uM after 48 hrs by SRB assay; conditions: NCI-H226, 48 h, read-out: GI
NCI-H23 = assay: Cytotoxicity against human NCI-H23 cells at 10 uM after 48 hrs by SRB assay; conditions: NCI-H23, 48 h, read-out: GI
M14 = assay: Cytotoxicity against human M14 cells at 10 uM after 48 hrs by SRB assay; conditions: M14, 48 h, read-out: GI
[2] = Cytotoxicity against human TK10 cells at 10 uM after 48 hrs by SRB assay; conditions: TK-10, 48 h, read-out: GI
A549 = assay: Cytotoxicity against human A549 cells at 10 uM after 48 hrs by SRB assay; conditions: A549, 48 h, read-out: GI
UACC-257 = assay: Cytotoxicity against human UACC257 cells at 10 uM after 48 hrs by SRB assay
[3] = Cytotoxicity against human HOP92 cells at 10 uM after 48 hrs by SRB assay; conditions: HOP-92, 48 h, read-out: GI
HOP-62 = assay: Cytotoxicity against human HOP62 cells at 10 uM after 48 hrs by SRB assay
[4] = Cytotoxicity against human SF539 cells at 10 uM after 48 hrs by SRB assay; conditions: SF-539, 48 h, read-out: GI
OVCAR-4 = assay: Cytotoxicity against human OVCAR4 cells at 10 uM after 48 hrs by SRB assay
[5] = Cytotoxicity against human SNB75 cells at 10 uM after 48 hrs by SRB assay; conditions: SNB-75, 48 h, read-out: GI
SR = assay: Cytotoxicity against human SR cells at 10 uM after 48 hrs by SRB assay; conditions: read-out: GI
NCI-H322M = assay: Cytotoxicity against human NCI-H322M cells at 10 uM after 48 hrs by SRB assay
MCF7 = assay: Cytotoxicity against human MCF7 cells at 10 uM after 48 hrs by SRB assay; conditions: MCF7, 48 h, read-out: GI
[6] = Cytotoxicity against human MOLT4 cells at 10 uM after 48 hrs by SRB assay; conditions: MOLT-4, 48 h, read-out: GI
SN12C = assay: Cytotoxicity against human SN12C cells at 10 uM after 48 hrs by SRB assay; conditions: read-out: GI
[7] = Cytotoxicity against human RXF393 cells at 10 uM after 48 hrs by SRB assay; conditions: RXF 393, 48 h, read-out: GI
[8] = Cytotoxicity against human SF295 cells at 10 uM after 48 hrs by SRB assay; conditions: SF-295, 48 h, read-out: GI
[9] = Cytotoxicity against human SNB19 cells at 10 uM after 48 hrs by SRB assay; conditions: SNB-19, 48 h, read-out: GI
[10] = Cytotoxicity against human SW620 cells at 10 uM after 48 hrs by SRB assay; conditions: SW-620, 48 h, read-out: GI
OVCAR-5 = assay: Cytotoxicity against human OVCAR5 cells at 10 uM after 48 hrs by SRB assay
NCI-H460 = assay: Cytotoxicity against human NCI-H460 cells at 10 uM after 48 hrs by SRB assay; conditions: NCI-H460, 48 h, read-out: GI
[11] = Cytotoxicity against human OVCAR8 cells at 10 uM after 48 hrs by SRB assay; conditions: OVCAR-8, 48 h, read-out: GI
786-0 = assay: Cytotoxicity against human 786-0 cells at 10 uM after 48 hrs by SRB assay; conditions: 786-0, 48 h, read-out: GI
[12] = Cytotoxicity against human SF268 cells at 10 uM after 48 hrs by SRB assay; conditions: SF-268, 48 h, read-out: GI
SK-MEL-5 = assay: Cytotoxicity against human SK-MEL-5 cells at 10 uM after 48 hrs by SRB assay; conditions: SK-MEL-5, 48 h, read-out: GI
[13] = Cytotoxicity against human UACC62 cells at 10 uM after 48 hrs by SRB assay; conditions: UACC-62, 48 h, read-out: GI
[14] = Cytotoxicity against human OVCAR3 cells at 10 uM after 48 hrs by SRB assay; conditions: OVCAR-3, 48 h, read-out: GI
[15] = Cytotoxicity against human RPMI8226 cells at 10 uM after 48 hrs by SRB assay; conditions: RPMI-8226, 48 h, read-out: GI
CCRF-CEM = assay: Cytotoxicity against human CCRF-CEM cells at 10 uM after 48 hrs by SRB assay; conditions: read-out: GI
[16] = Cytotoxicity against human PC3 cells at 10 uM after 48 hrs by SRB assay; conditions: PC-3, 48 h, read-out: GI
HCC 2998 = assay: Cytotoxicity against human HCC2998 cells at 10 uM after 48 hrs by SRB assay
KM12 = assay: Cytotoxicity against human KM12 cells at 10 uM after 48 hrs by SRB assay; conditions: KM12, 48 h, read-out: GI
Malme-3M = assay: Cytotoxicity against human MALME-3M cells at 10 uM after 48 hrs by SRB assay
[17] = Cytotoxicity against human HCT15 cells at 10 uM after 48 hrs by SRB assay; conditions: HCT-15, 48 h, read-out: GI
SK-MEL-28 = assay: Cytotoxicity against human SK-MEL-28 cells at 10 uM after 48 hrs by SRB assay; conditions: SK-MEL-28, 48 h, read-out: GI
[18] = Cytotoxicity against human Caki1 cells at 10 uM after 48 hrs by SRB assay; conditions: CAKI-1, 48 h, read-out: GI
[19] = Cytotoxicity against human Hs 578T cells at 10 uM after 48 hrs by SRB assay; conditions: read-out: GI
A498 = assay: Cytotoxicity against human A498 cells at 10 uM after 48 hrs by SRB assay; conditions: A498, 48 h, read-out: GI
MDA-MB-231 = assay: Cytotoxicity against human MDA-MB-231 cells at 10 uM after 48 hrs by SRB assay
LOX IMVI = assay: Cytotoxicity against human LOXIMVI cells at 10 uM after 48 hrs by SRB assay
[20] = Cytotoxicity against human COLO205 cells at 10 uM after 48 hrs by SRB assay; conditions: COLO 205, 48 h, read-out: GI
U-251 = assay: Cytotoxicity against human U251 cells at 10 uM after 48 hrs by SRB assay; conditions: U-251, 48 h, read-out: GI
DU-145 = assay: Cytotoxicity against human DU145 cells at 10 uM after 48 hrs by SRB assay
T47D = assay: Cytotoxicity against human T47D cells at 10 uM after 48 hrs by SRB assay; conditions: read-out: GI
NCI-H522 = assay: Cytotoxicity against human NCI-H522 cells at 10 uM after 48 hrs by SRB assay; conditions: NCI-H522, 48 h, read-out: GI
MDA-MB-435 = assay: Cytotoxicity against human MDA-MB-435 cells at 10 uM after 48 hrs by SRB assay; conditions: MDA-MB-435, 48 h, read-out: GI
[21] = Cytotoxicity against human SKOV3 cells at 10 uM after 48 hrs by SRB assay; conditions: SK-OV-3, 48 h, read-out: GI
[22] = Cytotoxicity against human HCT116 cells at 10 uM after 48 hrs by SRB assay; conditions: HCT-116, 48 h, read-out: GI
K562 = assay: Cytotoxicity against human K562 cells at 10 uM after 48 hrs by SRB assay; conditions: K562, 48 h, read-out: GI
[23] = Cytotoxicity against human UO31 cells at 10 uM after 48 hrs by SRB assay; conditions: UO-31, 48 h, read-out: GI
ACHN = assay: Cytotoxicity against human ACHN cells at 10 uM after 48 hrs by SRB assay; conditions: read-out: GI

**Q.** For `Cc1nc2ccc(Nc3nc(Nc4ccc(F)cc4)nc(N4CCCCC4)n3)cc2n1Cc1ccccc1`, which inhibition of growth at 10 µM [1] is on record?
**A.** 5.37%

**Q.** And the inhibition of growth at 10 µM (HT-29)?
**A.** 28.9%

**Q.** What about the inhibition of growth at 10 µM (MDA-MB-468) of the same compound?
**A.** 17.2%

**Q.** And the inhibition of growth at 10 µM (NCI-H226)?
**A.** 12.3%

**Q.** And the inhibition of growth at 10 µM (NCI-H23)?
**A.** 5.43%

**Q.** And the inhibition of growth at 10 µM (M14)?
**A.** 7.86%

**Q.** And the inhibition of growth at 10 µM [2]?
**A.** 7.88%

**Q.** What about the inhibition of growth at 10 µM (A549) of the same compound?
**A.** 29.2%

**Q.** What about the “growth inhibition (GI)” value (UACC-257) of the same compound?
**A.** inactive

**Q.** What about the inhibition of growth at 10 µM [3] of the same compound?
**A.** 24.7%

**Q.** What about the “growth inhibition (GI)” value (HOP-62) of the same compound?
**A.** inactive

**Q.** What about the inhibition of growth at 10 µM [4] of the same compound?
**A.** 2.48%

**Q.** And the “growth inhibition (GI)” value (OVCAR-4)?
**A.** inactive

**Q.** And the inhibition of growth at 10 µM [5]?
**A.** 4.31%

**Q.** And the inhibition of growth at 10 µM (SR)?
**A.** 50.7%

**Q.** What about the “growth inhibition (GI)” value (NCI-H322M) of the same compound?
**A.** inactive

**Q.** What about the inhibition of growth at 10 µM (MCF7) of the same compound?
**A.** 38.8%

**Q.** And the inhibition of growth at 10 µM [6]?
**A.** 30.7%

**Q.** What about the inhibition of growth at 10 µM (SN12C) of the same compound?
**A.** 3.75%

**Q.** What about the inhibition of growth at 10 µM [7] of the same compound?
**A.** 13.8%

**Q.** And the inhibition of growth at 10 µM [8]?
**A.** 9.64%

**Q.** And the inhibition of growth at 10 µM [9]?
**A.** 17.5%

**Q.** What about the inhibition of growth at 10 µM [10] of the same compound?
**A.** 5.34%

**Q.** And the “growth inhibition (GI)” value (OVCAR-5)?
**A.** inactive

**Q.** And the inhibition of growth at 10 µM (NCI-H460)?
**A.** 17.7%

**Q.** What about the inhibition of growth at 10 µM [11] of the same compound?
**A.** 6.9%

**Q.** What about the inhibition of growth at 10 µM (786-0) of the same compound?
**A.** 11.8%

**Q.** And the inhibition of growth at 10 µM [12]?
**A.** 4.31%

**Q.** And the inhibition of growth at 10 µM (SK-MEL-5)?
**A.** 22.9%

**Q.** What about the inhibition of growth at 10 µM [13] of the same compound?
**A.** 9.98%

**Q.** What about the inhibition of growth at 10 µM [14] of the same compound?
**A.** 0.84%

**Q.** What about the inhibition of growth at 10 µM [15] of the same compound?
**A.** 25.2%

**Q.** What about the inhibition of growth at 10 µM (CCRF-CEM) of the same compound?
**A.** 20.5%

**Q.** And the inhibition of growth at 10 µM [16]?
**A.** 21.3%

**Q.** And the “growth inhibition (GI)” value (HCC 2998)?
**A.** inactive

**Q.** What about the inhibition of growth at 10 µM (KM12) of the same compound?
**A.** 8.36%

**Q.** What about the “growth inhibition (GI)” value (Malme-3M) of the same compound?
**A.** inactive

**Q.** And the inhibition of growth at 10 µM [17]?
**A.** 16.6%

**Q.** What about the inhibition of growth at 10 µM (SK-MEL-28) of the same compound?
**A.** 3.66%

**Q.** What about the inhibition of growth at 10 µM [18] of the same compound?
**A.** 1.51%

**Q.** And the inhibition of growth at 10 µM [19]?
**A.** 0.58%

**Q.** And the inhibition of growth at 10 µM (A498)?
**A.** 24.9%

**Q.** What about the “growth inhibition (GI)” value (MDA-MB-231) of the same compound?
**A.** inactive

**Q.** And the “growth inhibition (GI)” value (LOX IMVI)?
**A.** inactive

**Q.** What about the inhibition of growth at 10 µM [20] of the same compound?
**A.** 2.32%

**Q.** What about the inhibition of growth at 10 µM (U-251) of the same compound?
**A.** 21.5%

**Q.** And the “growth inhibition (GI)” value (DU-145)?
**A.** inactive

**Q.** What about the inhibition of growth at 10 µM (T47D) of the same compound?
**A.** 34.7%

**Q.** And the inhibition of growth at 10 µM (NCI-H522)?
**A.** 30.1%

**Q.** What about the inhibition of growth at 10 µM (MDA-MB-435) of the same compound?
**A.** 3.66%

**Q.** What about the inhibition of growth at 10 µM [21] of the same compound?
**A.** 2.27%

**Q.** What about the inhibition of growth at 10 µM [22] of the same compound?
**A.** 26.5%

**Q.** What about the inhibition of growth at 10 µM (K562) of the same compound?
**A.** 26.5%

**Q.** What about the inhibition of growth at 10 µM [23] of the same compound?
**A.** 15.7%

**Q.** And the inhibition of growth at 10 µM (ACHN)?
**A.** 3.6%
